Source: publication PMC12367827, “Prioritisation of co-formulants and plant protection products for non-dietary risk assessment using NAMs” (Archives of Toxicology, 2025)

Key:
[1] = target: T1, CYP1A2 (Homo sapiens, UniProt P05177); experiment: P450-Glo luminescence turnover; assay type: biochemical; conditions: NADPH regeneration system; potassium phosphate buffer; […] °C; luminogenic substrate
T1 construct: recombinant human enzyme in membrane preparation (Promega P450-Glo CYP1A2 Screening System)
T1 sequence (P05177 2-516): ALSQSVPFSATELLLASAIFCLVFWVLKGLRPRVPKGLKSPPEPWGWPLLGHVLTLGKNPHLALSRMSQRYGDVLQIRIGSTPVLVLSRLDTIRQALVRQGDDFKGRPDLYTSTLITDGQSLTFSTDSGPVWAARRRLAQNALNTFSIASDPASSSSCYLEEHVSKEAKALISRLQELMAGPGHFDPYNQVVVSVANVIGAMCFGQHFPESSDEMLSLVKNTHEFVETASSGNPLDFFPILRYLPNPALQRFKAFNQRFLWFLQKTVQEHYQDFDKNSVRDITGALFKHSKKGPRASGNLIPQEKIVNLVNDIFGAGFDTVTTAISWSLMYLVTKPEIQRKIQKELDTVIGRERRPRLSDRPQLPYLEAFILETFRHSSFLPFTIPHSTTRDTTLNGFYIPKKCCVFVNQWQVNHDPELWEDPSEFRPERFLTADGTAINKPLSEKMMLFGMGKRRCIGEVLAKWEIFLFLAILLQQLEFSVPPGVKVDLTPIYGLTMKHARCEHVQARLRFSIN

[2] = target: CYP2C19 (Homo sapiens, UniProt P33261); experiment: P450-Glo luminescence inhibition assay
Chain of CYP2C19 (P33261 whole entry): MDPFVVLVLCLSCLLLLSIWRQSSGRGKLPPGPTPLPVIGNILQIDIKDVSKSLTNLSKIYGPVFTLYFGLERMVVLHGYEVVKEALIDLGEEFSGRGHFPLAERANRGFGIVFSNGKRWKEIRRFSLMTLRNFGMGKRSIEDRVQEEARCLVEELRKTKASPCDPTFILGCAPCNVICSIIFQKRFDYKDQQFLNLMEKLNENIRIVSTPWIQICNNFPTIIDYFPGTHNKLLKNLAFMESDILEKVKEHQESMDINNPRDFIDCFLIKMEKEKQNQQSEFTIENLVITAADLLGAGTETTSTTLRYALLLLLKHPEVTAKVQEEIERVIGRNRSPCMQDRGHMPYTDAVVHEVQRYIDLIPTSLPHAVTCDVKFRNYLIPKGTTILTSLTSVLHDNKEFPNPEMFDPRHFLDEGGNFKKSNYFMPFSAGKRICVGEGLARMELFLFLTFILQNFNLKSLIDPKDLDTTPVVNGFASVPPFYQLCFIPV

Compound: COc1ccc2nc(C3=NC(C(=O)O)CS3)sc2c1 (centres unmarked) [Luciferin-ME]
- P450-Glo luminescence turnover [1]: Luciferin-ME (CYP1A2) as luminogenic substrate

Compound: CCCCCCCCCC(=O)N(C)C [NDA, N,N-dimethyldecanamide]
- IC50 [2]: 4.05 µM
